Measured values reported in ChEMBL document CHEMBL1145498, “A systematic interaction map of validated kinase inhibitors with Ser/Thr kinases” (Proc Natl Acad Sci U S A, 2007).

Key:
[1] = molecular target: TRAF2 and NCK-interacting protein kinase (Homo sapiens) (UniProt Q9UKE5)
[2] = molecular target: Serine/threonine-protein kinase pim-2 (Homo sapiens, UniProt Q9P1W9)
[3] = molecular target: T1, Serine/threonine-protein kinase VRK3 (Homo sapiens) (UniProt Q8IV63)
T1 sequence (whole entry): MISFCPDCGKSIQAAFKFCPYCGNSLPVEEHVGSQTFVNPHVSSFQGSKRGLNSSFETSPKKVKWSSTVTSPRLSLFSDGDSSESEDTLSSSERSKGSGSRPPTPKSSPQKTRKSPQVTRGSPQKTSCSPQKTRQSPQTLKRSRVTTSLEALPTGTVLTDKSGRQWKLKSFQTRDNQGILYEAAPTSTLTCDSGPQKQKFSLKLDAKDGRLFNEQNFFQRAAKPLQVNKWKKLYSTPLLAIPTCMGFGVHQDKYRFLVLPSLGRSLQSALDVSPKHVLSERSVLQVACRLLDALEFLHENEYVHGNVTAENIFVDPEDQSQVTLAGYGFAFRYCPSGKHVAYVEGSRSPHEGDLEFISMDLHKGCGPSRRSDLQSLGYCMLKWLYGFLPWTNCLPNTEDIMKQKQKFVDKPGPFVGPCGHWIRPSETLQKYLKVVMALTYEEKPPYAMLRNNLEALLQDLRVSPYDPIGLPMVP

[4] = molecular target: Serine/threonine-protein kinase PLK1 (Homo sapiens) (UniProt P53350)
[5] = molecular target: Mitogen-activated protein kinase 11 (Homo sapiens, UniProt Q15759)
Chain of Mitogen-activated protein kinase 11 (Q15759 whole entry): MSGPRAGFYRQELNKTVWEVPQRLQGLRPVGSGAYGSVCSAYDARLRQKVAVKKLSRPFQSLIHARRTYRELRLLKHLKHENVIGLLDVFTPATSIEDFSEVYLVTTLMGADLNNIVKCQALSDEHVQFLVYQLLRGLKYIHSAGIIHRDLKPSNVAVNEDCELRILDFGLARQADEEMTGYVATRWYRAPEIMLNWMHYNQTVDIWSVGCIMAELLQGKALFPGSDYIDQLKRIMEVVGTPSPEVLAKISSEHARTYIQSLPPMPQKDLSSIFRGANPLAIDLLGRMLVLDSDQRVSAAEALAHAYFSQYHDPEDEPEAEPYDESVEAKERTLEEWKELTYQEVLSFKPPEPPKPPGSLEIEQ

[6] = molecular target: Serine/threonine-protein kinase PAK 4 (Homo sapiens) (UniProt O96013)
[7] = molecular target: cAMP-dependent protein kinase catalytic subunit alpha (Homo sapiens) (UniProt P17612)
[8] = molecular target: Cyclin-dependent kinase 16 (Homo sapiens) (UniProt Q00536)
[9] = molecular target: Glycogen synthase kinase-3 beta (Homo sapiens, UniProt P49841)
Chain of Glycogen synthase kinase-3 beta (P49841 whole entry, looked up, canonical isoform): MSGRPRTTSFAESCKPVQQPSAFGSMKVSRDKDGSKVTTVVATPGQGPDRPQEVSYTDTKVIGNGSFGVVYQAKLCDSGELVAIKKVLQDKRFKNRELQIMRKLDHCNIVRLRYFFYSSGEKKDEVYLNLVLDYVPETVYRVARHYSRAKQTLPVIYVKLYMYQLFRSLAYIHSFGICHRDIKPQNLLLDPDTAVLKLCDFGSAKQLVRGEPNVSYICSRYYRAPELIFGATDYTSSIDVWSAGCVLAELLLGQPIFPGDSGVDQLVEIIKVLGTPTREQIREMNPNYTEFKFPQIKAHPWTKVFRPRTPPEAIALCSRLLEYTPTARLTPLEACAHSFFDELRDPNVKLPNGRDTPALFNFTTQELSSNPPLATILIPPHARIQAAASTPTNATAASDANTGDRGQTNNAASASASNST

[10] = molecular target: Casein kinase I isoform gamma-3 (Homo sapiens) (UniProt Q9Y6M4)
Chain of Casein kinase I isoform gamma-3 (Homo sapiens) (Q9Y6M4 whole entry, looked up, canonical isoform): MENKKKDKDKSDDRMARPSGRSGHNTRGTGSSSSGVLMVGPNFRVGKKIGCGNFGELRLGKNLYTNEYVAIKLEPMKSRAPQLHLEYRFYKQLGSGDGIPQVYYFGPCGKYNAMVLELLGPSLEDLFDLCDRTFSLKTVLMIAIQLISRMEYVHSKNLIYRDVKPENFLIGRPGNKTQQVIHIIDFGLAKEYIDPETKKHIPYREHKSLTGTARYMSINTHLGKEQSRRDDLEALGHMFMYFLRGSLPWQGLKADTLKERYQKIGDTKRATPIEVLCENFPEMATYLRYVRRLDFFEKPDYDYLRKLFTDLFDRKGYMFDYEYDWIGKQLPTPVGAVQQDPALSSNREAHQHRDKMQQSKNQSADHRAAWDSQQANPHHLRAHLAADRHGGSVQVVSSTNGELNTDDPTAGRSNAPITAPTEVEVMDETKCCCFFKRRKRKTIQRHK

[11] = molecular target: Calcium/calmodulin-dependent protein kinase kinase 2 (Homo sapiens, UniProt Q96RR4)
[12] = molecular target: Serine/threonine-protein kinase VRK2 (Homo sapiens) (UniProt Q86Y07)
Chain of Serine/threonine-protein kinase VRK2 (Homo sapiens) (Q86Y07 whole entry): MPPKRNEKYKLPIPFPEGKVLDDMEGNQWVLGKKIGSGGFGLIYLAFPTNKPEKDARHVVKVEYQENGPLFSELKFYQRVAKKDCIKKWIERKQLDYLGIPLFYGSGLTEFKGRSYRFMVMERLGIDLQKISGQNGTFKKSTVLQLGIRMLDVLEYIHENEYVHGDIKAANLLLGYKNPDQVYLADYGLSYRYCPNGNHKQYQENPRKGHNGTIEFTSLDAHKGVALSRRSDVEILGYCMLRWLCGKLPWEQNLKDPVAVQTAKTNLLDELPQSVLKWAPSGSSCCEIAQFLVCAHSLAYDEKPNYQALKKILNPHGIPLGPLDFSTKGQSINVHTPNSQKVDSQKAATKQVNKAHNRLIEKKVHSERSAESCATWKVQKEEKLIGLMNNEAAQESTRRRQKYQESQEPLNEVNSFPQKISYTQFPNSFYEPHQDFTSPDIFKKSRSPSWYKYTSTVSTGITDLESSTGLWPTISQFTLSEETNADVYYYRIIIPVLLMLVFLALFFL

[13] = molecular target: T2, Serine/threonine-protein kinase 4 (Homo sapiens) (UniProt Q13043)
T2 sequence (whole entry): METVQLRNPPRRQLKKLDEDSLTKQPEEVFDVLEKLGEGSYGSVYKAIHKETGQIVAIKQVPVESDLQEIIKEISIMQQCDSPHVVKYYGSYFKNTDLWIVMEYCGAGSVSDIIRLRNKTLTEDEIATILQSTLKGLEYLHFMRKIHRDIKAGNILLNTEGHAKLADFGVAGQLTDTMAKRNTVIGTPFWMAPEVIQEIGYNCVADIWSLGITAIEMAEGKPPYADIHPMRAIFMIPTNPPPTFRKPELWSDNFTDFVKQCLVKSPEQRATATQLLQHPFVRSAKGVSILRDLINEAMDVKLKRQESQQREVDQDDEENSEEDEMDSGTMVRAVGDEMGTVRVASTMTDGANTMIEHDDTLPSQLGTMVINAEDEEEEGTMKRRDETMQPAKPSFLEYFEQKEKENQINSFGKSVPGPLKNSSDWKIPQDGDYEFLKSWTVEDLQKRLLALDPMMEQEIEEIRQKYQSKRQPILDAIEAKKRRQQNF

[14] = molecular target: T3, Serine/threonine-protein kinase VRK1 (Homo sapiens) (UniProt Q99986)
T3 sequence (whole entry): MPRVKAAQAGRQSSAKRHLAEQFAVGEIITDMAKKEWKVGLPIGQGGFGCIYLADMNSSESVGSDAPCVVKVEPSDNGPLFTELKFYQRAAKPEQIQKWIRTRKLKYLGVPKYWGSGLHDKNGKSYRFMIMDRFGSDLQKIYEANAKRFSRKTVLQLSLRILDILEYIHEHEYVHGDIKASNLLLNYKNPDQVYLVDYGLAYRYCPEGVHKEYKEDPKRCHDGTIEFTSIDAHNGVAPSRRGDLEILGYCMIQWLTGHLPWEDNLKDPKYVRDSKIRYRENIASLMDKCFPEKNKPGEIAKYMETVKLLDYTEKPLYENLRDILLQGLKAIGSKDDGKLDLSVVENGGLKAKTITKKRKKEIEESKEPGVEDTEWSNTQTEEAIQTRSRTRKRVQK

[15] = molecular target: Serine/threonine-protein kinase PAK 5 (Homo sapiens) (UniProt Q9P286)
Chain of Serine/threonine-protein kinase PAK 5 (Homo sapiens) (Q9P286 whole entry, looked up): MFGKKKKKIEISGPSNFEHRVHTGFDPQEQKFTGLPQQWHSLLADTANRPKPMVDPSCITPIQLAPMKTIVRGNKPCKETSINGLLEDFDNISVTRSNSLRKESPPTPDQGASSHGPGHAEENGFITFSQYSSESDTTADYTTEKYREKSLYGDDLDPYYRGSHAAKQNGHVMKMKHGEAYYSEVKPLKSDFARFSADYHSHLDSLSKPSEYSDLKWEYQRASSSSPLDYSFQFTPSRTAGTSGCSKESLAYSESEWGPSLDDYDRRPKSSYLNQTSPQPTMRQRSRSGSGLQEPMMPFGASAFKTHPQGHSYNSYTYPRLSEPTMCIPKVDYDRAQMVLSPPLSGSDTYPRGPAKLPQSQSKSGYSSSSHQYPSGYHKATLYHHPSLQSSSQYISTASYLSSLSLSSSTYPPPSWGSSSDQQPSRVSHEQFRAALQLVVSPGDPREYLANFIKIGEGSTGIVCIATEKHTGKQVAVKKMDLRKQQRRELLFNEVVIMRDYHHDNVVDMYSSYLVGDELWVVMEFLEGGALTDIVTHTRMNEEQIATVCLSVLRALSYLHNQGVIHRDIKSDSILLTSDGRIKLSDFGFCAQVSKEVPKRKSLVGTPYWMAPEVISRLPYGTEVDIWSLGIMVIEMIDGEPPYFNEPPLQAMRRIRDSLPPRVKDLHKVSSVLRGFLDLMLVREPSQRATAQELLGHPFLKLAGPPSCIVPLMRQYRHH

[16] = molecular target: T4, Myotonin-protein kinase (Homo sapiens) (UniProt Q09013)
T4 sequence (whole entry): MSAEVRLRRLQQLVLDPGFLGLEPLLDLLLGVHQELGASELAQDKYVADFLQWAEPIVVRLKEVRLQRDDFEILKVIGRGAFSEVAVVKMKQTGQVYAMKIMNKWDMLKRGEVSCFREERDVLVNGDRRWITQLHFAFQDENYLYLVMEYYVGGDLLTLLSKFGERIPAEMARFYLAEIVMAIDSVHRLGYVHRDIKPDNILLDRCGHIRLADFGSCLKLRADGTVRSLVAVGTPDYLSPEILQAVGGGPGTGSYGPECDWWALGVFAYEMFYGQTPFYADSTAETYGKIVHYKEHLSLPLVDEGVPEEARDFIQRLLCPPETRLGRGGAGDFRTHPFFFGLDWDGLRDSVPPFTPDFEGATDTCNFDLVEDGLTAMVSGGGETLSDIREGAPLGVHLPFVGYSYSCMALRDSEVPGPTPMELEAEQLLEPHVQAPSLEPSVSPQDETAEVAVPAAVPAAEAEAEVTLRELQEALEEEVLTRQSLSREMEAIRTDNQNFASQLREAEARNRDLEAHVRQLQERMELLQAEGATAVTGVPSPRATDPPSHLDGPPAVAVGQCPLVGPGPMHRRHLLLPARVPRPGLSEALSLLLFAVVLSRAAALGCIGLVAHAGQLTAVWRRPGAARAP

[17] = molecular target: Calcium/calmodulin-dependent protein kinase type II subunit delta (Homo sapiens) (UniProt Q13557)
Chain of Calcium/calmodulin-dependent protein kinase type II subunit delta (Homo sapiens) (Q13557 whole entry): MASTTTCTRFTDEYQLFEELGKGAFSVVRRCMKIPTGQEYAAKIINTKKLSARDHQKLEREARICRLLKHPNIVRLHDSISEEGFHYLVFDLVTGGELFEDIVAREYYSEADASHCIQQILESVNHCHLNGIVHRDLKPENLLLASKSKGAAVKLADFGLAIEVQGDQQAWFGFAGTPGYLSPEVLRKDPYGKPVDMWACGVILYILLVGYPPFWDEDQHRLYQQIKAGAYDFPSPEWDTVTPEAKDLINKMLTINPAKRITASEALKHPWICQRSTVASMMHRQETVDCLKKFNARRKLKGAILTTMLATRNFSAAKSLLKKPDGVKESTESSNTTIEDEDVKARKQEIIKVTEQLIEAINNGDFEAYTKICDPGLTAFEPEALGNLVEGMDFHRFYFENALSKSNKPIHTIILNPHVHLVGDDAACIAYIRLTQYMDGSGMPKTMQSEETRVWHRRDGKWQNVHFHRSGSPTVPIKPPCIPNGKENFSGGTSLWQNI

[18] = molecular target: Dual specificity protein kinase CLK2 (Homo sapiens) (UniProt P49760)
Chain of Dual specificity protein kinase CLK2 (Homo sapiens) (P49760 whole entry, looked up): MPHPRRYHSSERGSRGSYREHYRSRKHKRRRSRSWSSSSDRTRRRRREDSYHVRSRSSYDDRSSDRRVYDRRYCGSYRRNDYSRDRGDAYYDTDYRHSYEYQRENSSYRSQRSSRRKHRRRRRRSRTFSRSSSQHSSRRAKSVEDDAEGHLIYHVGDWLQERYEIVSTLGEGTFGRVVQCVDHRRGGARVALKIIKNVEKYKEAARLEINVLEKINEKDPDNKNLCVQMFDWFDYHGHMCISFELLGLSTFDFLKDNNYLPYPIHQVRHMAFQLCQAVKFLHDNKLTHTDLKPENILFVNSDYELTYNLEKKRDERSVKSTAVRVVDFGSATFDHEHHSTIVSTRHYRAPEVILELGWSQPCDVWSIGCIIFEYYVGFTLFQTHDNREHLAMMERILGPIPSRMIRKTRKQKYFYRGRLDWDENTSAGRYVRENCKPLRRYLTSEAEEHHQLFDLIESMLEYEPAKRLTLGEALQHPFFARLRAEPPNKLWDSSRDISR

Chain of TRAF2 and NCK-interacting protein kinase (Homo sapiens) (Q9UKE5 whole entry, looked up): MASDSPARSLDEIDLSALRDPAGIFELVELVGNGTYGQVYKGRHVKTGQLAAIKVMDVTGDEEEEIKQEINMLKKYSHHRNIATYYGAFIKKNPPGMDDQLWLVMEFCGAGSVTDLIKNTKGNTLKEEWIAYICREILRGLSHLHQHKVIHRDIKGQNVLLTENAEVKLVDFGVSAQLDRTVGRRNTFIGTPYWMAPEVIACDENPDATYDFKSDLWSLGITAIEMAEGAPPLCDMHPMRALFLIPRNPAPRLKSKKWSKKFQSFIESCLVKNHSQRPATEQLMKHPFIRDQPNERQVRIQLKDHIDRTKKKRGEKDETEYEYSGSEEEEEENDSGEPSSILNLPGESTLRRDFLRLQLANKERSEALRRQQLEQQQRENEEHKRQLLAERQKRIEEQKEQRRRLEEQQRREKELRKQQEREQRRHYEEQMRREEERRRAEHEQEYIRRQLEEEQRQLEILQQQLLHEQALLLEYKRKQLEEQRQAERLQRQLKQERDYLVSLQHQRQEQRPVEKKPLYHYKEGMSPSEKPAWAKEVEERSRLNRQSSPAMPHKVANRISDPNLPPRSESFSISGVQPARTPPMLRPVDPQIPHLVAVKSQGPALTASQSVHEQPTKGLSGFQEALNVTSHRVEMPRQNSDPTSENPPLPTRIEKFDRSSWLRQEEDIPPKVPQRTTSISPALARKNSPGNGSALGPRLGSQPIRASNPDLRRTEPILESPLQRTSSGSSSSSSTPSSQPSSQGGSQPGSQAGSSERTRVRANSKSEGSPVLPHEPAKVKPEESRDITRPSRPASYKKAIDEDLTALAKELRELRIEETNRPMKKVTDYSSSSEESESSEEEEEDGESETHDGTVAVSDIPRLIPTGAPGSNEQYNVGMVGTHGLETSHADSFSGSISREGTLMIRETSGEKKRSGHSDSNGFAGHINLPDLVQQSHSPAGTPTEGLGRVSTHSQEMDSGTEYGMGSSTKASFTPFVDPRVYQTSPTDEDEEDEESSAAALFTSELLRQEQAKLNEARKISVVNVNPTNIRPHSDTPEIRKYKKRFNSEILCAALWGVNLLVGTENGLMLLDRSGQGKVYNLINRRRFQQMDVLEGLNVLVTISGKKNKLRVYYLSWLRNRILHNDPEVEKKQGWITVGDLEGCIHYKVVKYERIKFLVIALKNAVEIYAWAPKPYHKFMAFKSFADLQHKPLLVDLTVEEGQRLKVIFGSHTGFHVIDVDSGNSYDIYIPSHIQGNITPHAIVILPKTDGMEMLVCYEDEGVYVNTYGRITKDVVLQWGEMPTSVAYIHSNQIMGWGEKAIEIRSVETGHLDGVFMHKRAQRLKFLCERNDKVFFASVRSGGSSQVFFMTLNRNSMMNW

Row | Compound | ΔTm [1] | ΔTm [2] | ΔTm [3] | ΔTm [4] | ΔTm [5] | ΔTm [6] | ΔTm [7] | ΔTm [8] | ΔTm [9] | ΔTm [10] | ΔTm [11] | ΔTm [12] | ΔTm [13] | ΔTm [14] | ΔTm [15] | ΔTm [16] | ΔTm [17] | ΔTm [18]
1 | CCOC(=O)c1c(C)[nH]c(/C=C2\C(=O)Nc3ccccc32)c1C | 0.4 °C | 0.1 °C | -2.2 °C | -0.6 °C | -0.4 °C | 0.9 °C | -1.6 °C | -0.2 °C | 2.3 °C | 0.3 °C | 1.4 °C | 0.2 °C | 3 °C | -1.7 °C | -0.5 °C | 0.5 °C | 0.4 °C | 0.6 °C
2 | O=c1cc(N2CCOCC2)oc2c1ccc1ccccc12 | 0.3 °C | 1 °C | 1 °C | 2.3 °C | 1.1 °C | 0.2 °C | 0.2 °C | -0.4 °C | 1.1 °C | 0 °C | -0.3 °C | -0.1 °C | 0.2 °C | 0 °C | 0 °C | 0.2 °C | -0.2 °C | 0.8 °C
3 | COc1ccc2c(c[n+](C)c3c4cc5c(cc4ccc23)OCO5)c1OC [CHELERYTHRINE CHLORIDE] | -1.3 °C | -3.1 °C | -0.6 °C | 0 °C | 0.6 °C | -3.8 °C | 1.4 °C | -0.2 °C | -1.5 °C | 0.2 °C | -1.6 °C | 0 °C | -0.4 °C | -0.1 °C | -1.7 °C | 1.7 °C | -0.8 °C | -0.2 °C
4 | COc1cc(/C=C/C(=O)CC(=O)/C=C/c2ccc(O)c(OC)c2)ccc1O [CURCUMIN] | 5.9 °C | 2.9 °C | 1.3 °C | 2 °C | 3.7 °C | 3 °C | 3.4 °C | 0.7 °C | 3.4 °C | 0.3 °C | 6.1 °C | 1.4 °C | 5.5 °C | 1 °C | 1.3 °C | 1.5 °C | 0.1 °C | 2.6 °C
5 | N#CC(C#N)=Cc1ccc(O)c(O)c1 [TYRPHOSTIN 23] | 0.2 °C | 1 °C | -0.2 °C | 0.4 °C | 0.3 °C | -0.1 °C | 0.6 °C | -0.7 °C | 0.8 °C | 0.3 °C | -0.7 °C | 0.2 °C | 0.6 °C | 0.1 °C | 0.5 °C | 0 °C | 0.4 °C | 0.1 °C
6 | CC(C)n1cnc2/c(=N/c3cccc(Cl)c3)nc(NCCO)[nH]c21 | 3.1 °C | 0.6 °C | 0.4 °C | 7.5 °C | -0.1 °C | 2.9 °C | 1.4 °C | 0.1 °C | 0.8 °C | 7 °C | 2.3 °C | 2.5 °C | 3.4 °C | 0.5 °C | 1.6 °C | 0.1 °C | -0.4 °C | 4.5 °C
7 | CC(C)(C)n1nc(-c2cccc3ccccc23)c2c(N)ncnc21 | 4.5 °C | -0.2 °C | 0.2 °C | 0 °C | 2.9 °C | 1.2 °C | 2.1 °C | -0.4 °C | 0.1 °C | 0.5 °C | 0.7 °C | 2.8 °C | 3.2 °C | 0.7 °C | 1 °C | 2.5 °C | -0.1 °C | 0.8 °C
8 | COc1cc(OC)c(/C=C2\C(=O)Nc3ccccc32)c(OC)c1 | 0.8 °C | 0.5 °C | 0.7 °C | -0.7 °C | 0.6 °C | 0.1 °C | 0.4 °C | -0.7 °C | 0.4 °C | 0.5 °C | 0.4 °C | 2.2 °C | -0.1 °C | 0.6 °C | -0.3 °C | 0.2 °C | -0.3 °C | 0.3 °C
